PubChem BioAssay (NCI)
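Values below derive from 48-hour exposures of cells grown in 96-well plates, with endpoints linearly interpolated between the two concentrations bracketing the appropriate inhibition level. GI50 is the concentration that inhibits growth by half. TGI marks complete inhibition of growth.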

What follows are molecules tested on MDA-N (assay: NCI tumour cell line growth inhibition, 48 h).
CCCC1c2c(ccc3ccccc23)Oc2ccc3ccccc3c21 gave a TGI of over 100 µM.
Molecule COc1cc(Nc2nc3cc(N)cc(N)c3nc2-c2ccccc2)cc(OC)c1 has a GI50 of 13 µM and a TGI of 35.9 µM.
For CC(=O)O[C@H]1C(=O)[C@@]2(C)C(C(OC(=O)c3ccccc3)[C@]3(O)CC(OC(=O)[C@H](OC(=O)CCC(=O)O)C(NC(=O)c4ccccc4)c4ccccc4)C(C)=C1C3(C)C)C1(OC(C)=O)COC1C[C@@H]2OC(=O)CCC(=O)O (stereo not given in full), the GI50 was 0.253 µM and the TGI was 1.21 µM.
N#CC(=S)Nc1cccc(Cl)c1 showed a TGI of over 100 µM.
For CCCC[C@H]1C(=O)O[C@H](C)[C@H](NC(=O)c2cccc(NC=O)c2O)C(=O)O[C@@H](C)[C@@H]1OC(=O)CC(C)C, the TGI was 51.9 µM.
Work on COc1cc2oc(=O)ccc2cc1C1OC(=O)C2OC21C (stereo not given) yielded a TGI of over 100 µM.
Molecule CC1=C(/C=C/C(C)=C\C=C\C(C)=C\C(=O)Nc2ccc3c(c2)OCO3)C(C)(C)CCC1 has a GI50 of 55.7 µM and a TGI of over 100 µM.
For COc1c(O)c2c(c3cc(C(=O)N4CCc5c4c(O)c(OC)c4[nH]c(C(=O)N6CC7CC78C6=CC(=O)c6[nH]cc(C)c68)cc54)[nH]c13)CCN2C(N)=O (stereo not given), the TGI was 22.3 µM.
In the case of C=C1[C@@H](C)[C@H]2[C@H](Cc3ccccc3)NC(=O)[C@]23OC(=O)/C=C/[C@H](O)CCC[C@@H](C)C/C=C/[C@H]3[C@@H]1O, the TGI is reported as over 100 µM.
Work on O=C(O)c1cc2ccccc2c(O)c1O yielded a TGI of 4.01 µM.
O=c1c2ccccc2c2ccccc2c(=O)n1-c1cc2c3ccccc3ccc2c2ccccc12 gave a TGI of over 100 µM.
O=C(O)C(=Cc1ccnc2ccccc12)C(=O)O gave a TGI of over 100 µM.
C/C(=N/S(=O)(=O)c1ccc(Cl)c(Cl)c1)OCC(C)(C)C was tested, and the TGI was over 100 µM.
With CC(=O)Nc1ccc(/C=C/[N+](=O)[O-])cc1 the TGI was 6.59 µM.

Each molecule was assayed on P388 leukemia (assay: NCI tumour cell line growth inhibition, 48 h).
With C=C1[C@@H](C)[C@H]2[C@H](Cc3ccccc3)NC(=O)[C@]23OC(=O)/C=C/[C@H](O)CCC[C@@H](C)C/C=C/[C@H]3[C@@H]1O the TGI was over 87.1 µM.

What follows are molecules tested on P388/ADR leukemia (assay: NCI tumour cell line growth inhibition, 48 h).
C=C1[C@@H](C)[C@H]2[C@H](Cc3ccccc3)NC(=O)[C@]23OC(=O)/C=C/[C@H](O)CCC[C@@H](C)C/C=C/[C@H]3[C@@H]1O gave a TGI of 73.4 µM.

Each molecule was assayed on RXF-631 renal (assay: NCI tumour cell line growth inhibition, 48 h).
In the case of CCOc1ccc(N=Cc2cccc3cccnc23)cc1, the TGI is reported as over 100 µM.
For CC(O)/C=C/C(CCC(C)CO)C(C)C (stereo not given), the TGI was over 100 µM.
With CCCCCCCCCCCCCCCCCC(=O)OCC(CN(C)CCN(C)C)OC(=O)CCCCCCCCCCCCCCCCC (stereo not given) the TGI was over 100 µM.
Cc1cccc(C(C)(C)C)c1NC(=O)C(=O)C(C(=O)/C=C\c1ccccc1)C1OC(=O)c2ccccc21 (stereo not given) showed a TGI of over 100 µM.
In the case of Cc1ccccc1-c1c(N)nc(NC#N)nc1C(=O)Nc1ccccc1, the TGI is reported as over 100 µM.
Molecule O=C(O)CNc1c2ccccc2nc2ccccc12 has a TGI of over 100 µM.
With N#CC(C(=O)/C(=N/N)C(C#N)c1ccc(Cl)cc1)c1ccc(Cl)cc1 (stereo not given) the TGI was over 100 µM.
With CC(=O)OC1C(=O)C(O)C(C)OC1O[C@@H]1C[C@@]2(C)[C@@H]3CC=C4[C@@H](C[C@H](O)C(=O)C4(C)C)[C@]3(C)C(=O)C[C@]2(C)[C@H]1[C@@](C)(O)C(=O)/C=C/C(C)(C)O (stereo not given in full) the TGI was 7.85 µM.
COC(=O)C(CCS(=O)(=O)CC(=O)C(=O)Nc1cccc(C(C)=O)c1)C(=O)OC was tested, and the TGI was over 100 µM.
CCCN(CCCCC(NC(C)=O)C(=O)NCc1ccccc1)C(=O)NCCCl (stereo not given) gave a TGI of over 100 µM.
Work on COC(=O)C1=C(C)N(NC(N)=O)C2(N)N(NC(N)=O)C(C)=C(C(=O)OC)C12C(=O)OC (stereo not given) yielded a TGI of over 100 µM.
CCN1C2=NC(=O)N(C)C(=O)C2(Cl)C(C(SC)S(=O)(=O)c2ccc(C)cc2)c2ccccc21 (stereo not given) was tested, and the TGI was 51.2 µM.
Clc1ccc(Cl)c2[s+]snc12 showed a TGI of over 100 µM.
Work on COC(=O)C1CC(C(=O)OC)c2nc3cc(C)ccc3nc21 (stereo not given) yielded a TGI of over 100 µM.
Work on COc1ccc2[nH]c(-c3ccccn3)cc(=O)c2c1 yielded a TGI of over 100 µM.

These molecules were tested on SN12K1 renal (assay: NCI tumour cell line growth inhibition, 48 h).
For C=C1[C@@H](C)[C@H]2[C@H](Cc3ccccc3)NC(=O)[C@]23OC(=O)/C=C/[C@H](O)CCC[C@@H](C)C/C=C/[C@H]3[C@@H]1O, the TGI was 41.1 µM.
